According to patent US12325697B2 (Nimbus Clio, Inc., priority 2021, dated 2025):

What follows are compounds tested against Recombinant human Cbl-b (aa 36-427) (Homo sapiens (Human), UniProt Q13191) (assay: Cbl-b Biochemical Assay (TR-FRET)). Settings: read-out: TR-FRET hCbl-b IC50.
Protocol: Recombinant human Cbl-b (aa 36-427) was expressed in E. coli, purified and biotinylated in vitro. The protein was diluted to 12 nM in freshly prepared assay buffer consisting of 50 mM HEPES, pH 7.0, 100 mM NaCl, 5 mM MgCl2, 0.01% Triton-X 100, 0.01% BSA and 1 mM DTT. Recombinant human Src (aa 254-536)-[…]-Zap-70 (aa 281-297) fusion protein was expressed in E. coli and purified. Protein was diluted in assay buffer to 2-5 nM and supplemented with ATP to 1 mM. Fluorescein-BODIPY labeled UBE[…]([…])-Ub was prepared by conjugating ubiquitin (Ub) labeled at its N-terminus with Fluorescein-BODIPY maleimide (ThermoFisher Catalog no B10250) to E. coli expressed and purified UBE[…]([…]) [see Dou et al Nature Structural and Molecular Biology 8: 982-987, 2013]. Recombinant human UBE2D2([…]) was expressed in E. coli, purified and ubiquitinated and Bodipy labelled in vitro. Protein was diluted to 200 nM in assay buffer without MgCl2 (or Cisbio PPI buffer). Streptavidin-Terbium was added to 2 nM and EDTA to 10 mM, to provide a binding assay mix. Compounds were dissolved in DMSO and diluted to prepare a ten-point dilution series. 100 nl of each compound concentration was dispensed in duplicate in a 384 well black assay plate using acoustic dispensing. Wells for maximum signal controls received 100 nl of DMSO only and wells for minimum signal controls received 100 nl of a reference inhibitor compound at a final assay concentration of […] to produce 100% inhibition. 5 μl of diluted Cbl-b enzyme was added to all wells of the assay plate and incubated at RT for 30-60 min. The enzyme assay was initiated by addition of 5 μl of Src-Zap/ATP mix to all wells, and the plate incubated at RT for 60 min. The enzyme reaction was terminated and the binding reaction was initiated by adding 10 μl of binding assay mix to all wells and incubating the plate at RT for 60 min prior to assay read. Final assay conditions consisted of 6 nM Cbl-b, 1-2.5 nM Src-Zap70, 0.5 mM ATP, 1% (v/v) DMSO (enzyme reaction) and 100 nM UBE2D2([…])-Ub-FL-BODIPY, 5 mM EDTA, 1 nM Streptavidin-Tb (binding reaction). The HTRF assay signal was measured at 520 nm on an Envision plate reader, with reference signal at 485 or 620 nm. Data was normalized using maximum and minimum assay controls: % Inhibition=100-(100*((maximum control)-unknown)/(maximum control-minimum control)). A 4-parameter dose-response equation was used to fit the normalized dose-response data and derive an IC50 for test compounds.

Chain of Recombinant human Cbl-b (aa 36-427) (Q13191 36-427): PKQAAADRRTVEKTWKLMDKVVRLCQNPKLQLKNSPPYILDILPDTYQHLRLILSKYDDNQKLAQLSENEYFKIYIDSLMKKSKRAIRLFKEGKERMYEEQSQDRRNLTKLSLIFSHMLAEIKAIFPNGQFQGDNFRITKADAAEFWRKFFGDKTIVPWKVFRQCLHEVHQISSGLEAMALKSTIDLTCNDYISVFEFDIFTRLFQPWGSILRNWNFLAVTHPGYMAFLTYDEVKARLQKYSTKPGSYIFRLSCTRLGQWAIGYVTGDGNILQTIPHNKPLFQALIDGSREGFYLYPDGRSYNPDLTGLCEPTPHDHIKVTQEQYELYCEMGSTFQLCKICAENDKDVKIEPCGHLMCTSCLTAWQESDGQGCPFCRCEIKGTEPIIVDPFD

Which IC50 does the source give for `Cn1cnnc1-c1cnn(C)c1-c1cc(NS(C)(=O)=O)nc(N2Cc3c(cccc3C(F)(F)F)C2=O)c1` [AAW-2, N-(4-(1-Methyl-4-(4-methyl-4H-1,2,4-triazol-3-yl)-1H-pyrazol-5-yl)-6-(1-oxo-4-(trifluoromethyl)isoindolin-2-yl)pyridin-2-yl)methanesulfonamide] here?
Its IC50 is 1000 to 10000 nM.

`C[C@H]1CN(Cc2cc3c(c(C(F)(F)F)c2)CN(c2cccc(-c4ccccc4-c4nncn4C)c2)C3=O)CCO1` [AB-2, (S)-2-(2′-(4-Methyl-4H-1,2,4-triazol-3-yl)-[1,1′-biphenyl]-3-yl)-6-((2-methylmorpholino)methyl)-4-(trifluoromethyl)isoindolin-1-one] was tested. Which IC50 did it give?
The IC50 was ≤ 200 nM.

`CCNc1cc(-c2ccc(Cl)cc2-c2nncn2C)cc(N2Cc3c(cccc3C(F)(F)F)C2=O)n1` [ACR-7, 2-(4-(4-Chloro-2-(4-methyl-4H-1,2,4-triazol-3-yl)phenyl)-6-(ethylamino)pyridin-2-yl)-4-(trifluoromethyl)isoindolin-1-one] was tested. Which IC50 did it give?
The IC50 was ≤ 200 nM.

`Cn1cc(-c2nncn2C)c(-c2cccc(N3Cc4c(cccc4C(F)(F)F)C3=O)c2)n1` [AAL-8, 2-[3-[1-Methyl-4-(4-methyl-1,2,4-triazol-3-yl)pyrazol-3-yl]phenyl]-4-(trifluoromethyl)-3H-isoindol-1-one] was tested. Which IC50 did it give?
Its IC50 is 10000 to 50000 nM.

How did the IC50 turn out when `Cn1cnnc1-c1ccccc1-c1cc(N2Cc3c(cccc3C(F)(F)F)C2=O)nc(C(F)(F)F)c1` [Example J-4, 2-(4-(2-(4-Methyl-4H-1,2,4-triazol-3-yl)phenyl)-6-(trifluoromethyl)pyridin-2-yl)-4-(trifluoromethyl)isoindolin-1-one] was run?
Its IC50 is 10000 to 50000 nM.

How did the IC50 turn out when `CCNc1cc(-c2c(-c3nncn3C)cnn2C)cc(N2Cc3c(cc(COC(C)C)cc3C(F)(F)F)C2=O)n1` [ACW-1, 2-(6-(Ethylamino)-4-(1-methyl-4-(4-methyl-4H-1,2,4-triazol-3-yl)-1H-pyrazol-5-yl)pyridin-2-yl)-6-(isopropoxymethyl)-4-(trifluoromethyl)isoindolin-1-one] was run?
Its IC50 is ≤ 200 nM.

With `CCNc1cc(-c2c(-c3nncn3C)cnn2C)cc(N2Cc3c(cc(O)cc3C(F)(F)F)C2=O)n1` [ACQ-7, 2-(6-(Ethylamino)-4-(1-methyl-4-(4-methyl-4H-1,2,4-triazol-3-yl)-1H-pyrazol-5-yl)pyridin-2-yl)-6-hydroxy-4-(trifluoromethyl)isoindolin-1-one] as the compound, how does the IC50 read?
Its IC50 is ≤ 200 nM.

For `CCNc1cc(-c2c(-c3nncn3C)cnn2C)cc(N2Cc3c(cc(OC4CN(C)C4)cc3C(F)(F)F)C2=O)n1` [ACV-2, 2-(6-(Ethylamino)-4-(1-methyl-4-(4-methyl-4H-1,2,4-triazol-3-yl)-1H-pyrazol-5-yl)pyridin-2-yl)-6-((1-methylazetidin-3-yl)oxy)-4-(trifluoromethyl)isoindolin-1-one], which IC50 is on record?
The IC50 was ≤ 200 nM.

How did the IC50 turn out when `CCNc1cc(-c2ccccc2-c2nncn2C)cc(N2Cc3c(cc(CN[C@H]4CCC[C@H]4O)cc3C(F)(F)F)C2=O)n1` [AR-1, 2-(6-(Ethylamino)-4-(2-(4-methyl-4H-1,2,4-triazol-3-yl)phenyl)pyridin-2-yl)-6-((((1S,2R)-2-hydroxycyclopentyl)amino)methyl)-4-(trifluoromethyl)isoindolin-1-one] was run?
Its IC50 is ≤ 200 nM.

For `CCNc1cc(-c2ccccc2-c2nncn2C)cc(N2Cc3c(cc(CN[C@@H]4CCC[C@H]4O)cc3C(F)(F)F)C2=O)n1` [AO-1, 2-(6-(Ethylamino)-4-(2-(4-methyl-4H-1,2,4-triazol-3-yl)phenyl)pyridin-2-yl)-6-((((1R,2R)-2-hydroxycyclopentyl)amino)methyl)-4-(trifluoromethyl)isoindolin-1-one], which IC50 is on record?
Its IC50 is ≤ 200 nM.

How did the IC50 turn out when `CCNc1cc(-c2c(-c3nncn3C)cnn2C)cc(N2Cc3c(cc(CN4CC[C@H](F)C4)cc3C(F)(F)F)C2=O)n1` [ACB-1, (S)-2-(6-(Ethylamino)-4-(1-methyl-4-(4-methyl-4H-1,2,4-triazol-3-yl)-1H-pyrazol-5-yl)pyridin-2-yl)-6-((3-fluoropyrrolidin-1-yl)methyl)-4-(trifluoromethyl)isoindolin-1-one] was run?
The IC50 was ≤ 200 nM.

For `CCNc1cc(-c2ccccc2-c2nncn2C)cc(N2Cc3c(cc(CN[C@H]4CCC[C@@H]4O)cc3C(F)(F)F)C2=O)n1` [AP-1, 2-(6-(Ethylamino)-4-(2-(4-methyl-4H-1,2,4-triazol-3-yl)phenyl)pyridin-2-yl)-6-((((1S,2S)-2-hydroxycyclopentyl)amino)methyl)-4-(trifluoromethyl)isoindolin-1-one], which IC50 is on record?
The IC50 was ≤ 200 nM.

How did the IC50 turn out when `CCOc1cc(-c2c(-c3nncn3C)cnn2C)cc(N2Cc3c(cccc3C(F)(F)F)C2=O)c1` [AAI-7, 2-(3-Ethoxy-5-(1-methyl-4-(4-methyl-4H-1,2,4-triazol-3-yl)-1H-pyrazol-5-yl)phenyl)-4-(trifluoromethyl) isoindolin-1-one] was run?
Its IC50 is 200 to 1000 nM.

Which IC50 does the source give for `CCNc1cc(-c2c(-c3nncn3C)cnn2C)cc(NC(=O)c2cc(C)cc(C3CC3)n2)n1` [ABW-3, 6-Cyclopropyl-N-(6-(ethylamino)-4-(1-methyl-4-(4-methyl-4H-1,2,4-triazol-3-yl)-1H-pyrazol-5-yl)pyridin-2-yl)-4-methylpicolinamide] here?
Its IC50 is 200 to 1000 nM.

How did the IC50 turn out when `Cn1cnnc1-c1cnn(C)c1-c1cc(Cl)nc(N2Cc3c(cccc3C(F)(F)F)C2=O)c1` [AAN-7, 2-(6-Chloro-4-(1-methyl-4-(4-methyl-4H-1,2,4-triazol-3-yl)-1H-pyrazol-5-yl)pyridin-2-yl)-4-(trifluoromethyl)isoindolin-1-one] was run?
Its IC50 is 1000 to 10000 nM.

Which IC50 does the source give for `CCNc1cc(-c2ccccc2-c2nncn2C)cc(N2Cc3c(cc(COC)cc3C(F)(F)F)C2=O)n1` [AS-2, 2-(6-(Ethylamino)-4-(2-(4-methyl-4H-1,2,4-triazol-3-yl)phenyl)pyridin-2-yl)-6-(methoxymethyl)-4-(trifluoromethyl)isoindolin-1-one] here?
The IC50 was ≤ 200 nM.

With `COC(=O)c1cc(-c2ccccc2-c2nncn2C)cc(N2Cc3c(cccc3C(F)(F)F)C2=O)c1` [Example H-5, Methyl 2′-(4-methyl-4H-1,2,4-triazol-3-yl)-5-(1-oxo-4-(trifluoromethyl)isoindolin-2-yl)-[1,1′-biphenyl]-3-carboxylate] as the compound, how does the IC50 read?
The IC50 was 10000 to 50000 nM.

Which IC50 does the source give for `C[C@H]1CCCN(Cc2cc3c(c(C(F)(F)F)c2)CN(c2cccc(-c4ccccc4-c4nncn4C)c2)C3=O)C1` [Example R-2, (S)-2-(2′-(4-Methyl-4H-1,2,4-triazol-3-yl)-[1,1′-biphenyl]-3-yl)-6-((3-methylpiperidin-1-yl)methyl)-4-(trifluoromethyl)isoindolin-1-one] here?
The IC50 was ≤ 200 nM.

`CCNc1cc(-c2c(-c3nncn3C)cnn2C)cc(NC(=O)c2cc(=O)n(CCN3CCCC3)c(C3CC3)n2)n1` [ABL-4, 2-Cyclopropyl-N-(6-(ethylamino)-4-(1-methyl-4-(4-methyl-4H-1,2,4-triazol-3-yl)-1H-pyrazol-5-yl)pyridin-2-yl)-6-oxo-1-(2-(pyrrolidin-1-yl)ethyl)-1,6-dihydropyrimidine-4-carboxamide] was tested. Which IC50 did it give?
Its IC50 is 10000 to 50000 nM.

`Cn1cnnc1-c1ccccc1-c1cccc(N2Cc3c(cc(CN4CC[C@@H](F)C4)cc3C(F)(F)F)C2=O)c1` [Example Y-2, (R)-6-((3-Fluoropyrrolidin-1-yl)methyl)-2-(2′-(4-methyl-4H-1,2,4-triazol-3-yl)-[1,1′-biphenyl]-3-yl)-4-(trifluoromethyl)isoindolin-1-one] was tested. Which IC50 did it give?
The IC50 was 200 to 1000 nM.

How did the IC50 turn out when `CCNc1cc(-c2c(-c3nncn3C)cnn2C)cc(N2Cc3c(cc(CN4CC(F)C4)cc3C(F)(F)F)C2=O)n1` [ABN-2, 2-(6-(Ethylamino)-4-(1-methyl-4-(4-methyl-4H-1,2,4-triazol-3-yl)-1H-pyrazol-5-yl)pyridin-2-yl)-6-((3-fluoroazetidin-1-yl)methyl)-4-(trifluoromethyl)isoindolin-1-one] was run?
The IC50 was ≤ 200 nM.

How did the IC50 turn out when `CCNc1cc(-c2ccccc2-c2nncn2C)cc(N2Cc3c(cccc3C(F)(F)F)C2=O)n1` [AAU-1, 2-(6-(Ethylamino)-4-(2-(4-methyl-4H-1,2,4-triazol-3-yl)phenyl)pyridin-2-yl)-4-(trifluoromethyl)isoindolin-1-one] was run?
Its IC50 is ≤ 200 nM.

`Cn1cnnc1-c1ccccc1-c1cccc(NC(=O)c2cc(=O)n(CCN3CCCC3)c(C3CC3)n2)c1` [ABM-1, 2-Cyclopropyl-N-(2′-(4-methyl-4H-1,2,4-triazol-3-yl)-[1,1′-biphenyl]-3-yl)-6-oxo-1-(2-(pyrrolidin-1-yl)ethyl)-1,6-dihydropyrimidine-4-carboxamide] was tested. Which IC50 did it give?
The IC50 was 1000 to 10000 nM.
